Results from US20020182736A1, “Methods to measure lipid antioxidant activity” (TRUSTEES OF TUFTS COLLEGE, priority 2001, published 2002).

Tests used:
[1] = tested on: lipid peroxyl radicals generated by MeO-AMVN in human plasma; test: Consumption of endogenous plasma antioxidants induced by MeO-AMVN (HPLC); settings: for time to total disappearance in plasma: human plasma 1:5 with PBS, 37° C
Procedure: After an overnight fast (10-12 h), blood from two healthy donors was collected in ethylenediaminetetraacetic acid (EDTA)-containing tubes. In order to reduce the variability of different donors, blood samples from these two subjects were collected weekly for the duration of the experiment. Immediately after collection, the samples were placed on ice and protected from light. Plasma was obtained by centrifugation at 800 g for 20 min at 4° C. and immediately used for the in vitro studies.
In the presence of 10-20 mM of AAPH, the flux of aqueous radicals calculated on the basis of the known rate of free radical generation from AAPH at 37° C.
In order to obtain homogeneous incorporation, the lipid soluble initiators were added slowly to the samples with a micro-syringe (10 μl) with stirring. The samples were then vortexed for 10 sec and incubated at 37±1° C. under aerobic conditions.
In a second similar experiment, other antioxidants were studied. […] A 100 μl aliquot of the reaction mixture was extracted for β-carotene and α-tocopherol analysis. Echinenone in ethanol was added as an internal standard. The mixture was extracted with CHCl3:CH3OH (2:1 v/v) containing 0.2% BHT and hexane containing 0.1% BHT, dried under nitrogen, redissolved in ethanol, and injected into an HPLC system with a C30 column (3 μm, 150×4.6 mm, YMC, Wilmington, N.C.).
For water-soluble antioxidant measurement, the mixtures were immediately deproteinized with perchloric acid (250 mM).
Results are expressed as percentages with respect to control samples prepared without the azo-compounds.

[2] = tested on: aqueous peroxyl radicals generated by AAPH in human plasma; test: Consumption of endogenous plasma antioxidants induced by AAPH (HPLC); settings: for time to complete consumption in plasma: 20 mM AAPH, 37° C; for percentage remaining / Residual Amount (%): AAPH 20 mM for 120 min, no EGCG (control)
Procedure: In a second similar experiment, other antioxidants were studied. […] Echinenone in ethanol was added as an internal standard.

[3] = ESR quenching of α-tocopheroxyl radical generated from α-tocopherol and DPPH; assay type: biochemical; settings: unit inferred; read-out: IC50 quenching of α-TOC-O. ESR signal
Procedure: α-TOC+DPPH→α-TOC-O.+DPPHH [1]
For sample preparation, α-tocopherol (900 μM) and DPPH (600 μM) in ethanol solution were mixed for 20 sec and 50 μl of the reaction mixture transferred into a capillary ESR tube. (−)-Epigallocatechin-(3)-gallate (EGCG) was added to the mixture immediately after DPPH decolorization (30 sec after DPPH addition).

[4] = E(EGCG-O., H+/EGCG-OH); E(A−., H+/AH−); cited from earlier work

O=c1[nH]c(=O)c2[nH]c(=O)[nH]c2[nH]1 [uric acid]
time to total disappearance in plasma ([1]; 2 mM MeO-AMVN): 300 min | time to complete consumption in plasma ([2]; human plasma 1:5 with PBS): ≤ 180 min

CC(C)=CCC/C(C)=C/C=C/C(C)=C/C=C/C(C)=C/C=C/C=C(C)/C=C/C=C(C)/C=C/C=C(\C)CCC=C(C)C [Lycopene, lycopene]
percentage remaining / Residual Amount (%) [2]: 8.49 ± 5.20% | percentage remaining / Residual Amount (%) ([2]; listed as lycopene): 8.49±5.20%

O=C1O[C@H]([C@@H](O)CO)C(O)=C1O [ascorbic acid]
time to total disappearance in plasma ([1]; 2 mM MeO-AMVN): 30 min | time to complete consumption in plasma ([2]; human plasma 1:5 with PBS): ≤ 15 min | IC50 [3]: 14.2 µM | redox potential E [4]: 0.28 V

Cc1c(C)c2c(c(C)c1O)CC[C@@](C)(CCC[C@H](C)CCC[C@H](C)CCCC(C)C)O2 [α-tocopherol]
time to almost total depletion ([1]; 2 mM MeO-AMVN): 60 min | content reduced by ([1]; 2 mM MeO-AMVN, at 30 min): 42% | % α-tocopherol remaining ([1]; control without EGCG, MeO-AMVN): 16.43±1.72% | time to almost complete consumption in plasma ([2]; 10-20 mM AAPH, human plasma 1:5 with PBS): ≤ 30 min | percentage remaining / Residual Amount (%) [2]: 3.86±0.94%

CC1=C[C@H](O)CC(C)(C)[C@H]1/C=C/C(C)=C/C=C/C(C)=C/C=C/C=C(C)/C=C/C=C(C)/C=C/C1=C(C)C[C@@H](O)CC1(C)C [Lutein, lutein]
percentage remaining / Residual Amount (%) [2]: 12.82 ± 4.85% | percentage remaining / Residual Amount (%) ([2]; listed as lutein): 12.82±4.85%
